Experimental data: US20170298083A1, “NEW IMMUNOSTIMULATORY COMPOUNDS” (Bernhard-Nocht-Institut für Tropenmedizin, priority 2014, published 2017)

What was measured:
[1] = liver toxicity: serum ALT after intraperitoneal injection; format: in vivo; conditions: C57BL/6 mice, four-time intraperitoneal injection; EhLPPG 1, 10, 25 and 50 μg/ml; αGalCer 0.1, 1 and 10 μg/ml
human NKT cells = assay: human iNKT cell assay: intracellular cytokine production in whole PBMCs by FACS; format: cell-based; conditions: human PBMC, 15 h, 1 μg/ml αGalCer or 10 μg/ml purified EhLPPG, FIG. 1
Leishmania major = assay: in vitro Leishmania assay: infected bone marrow derived macrophages; conditions: for percentage of L. major infected macrophages / parasite load per macrophage: BMM, 48 h

With `CCCCCCCCCCCCCCCCCCCCCCCCCC(=O)N[C@@H](CO[C@H]1O[C@H](CO)[C@H](O)[C@H](O)[C@H]1O)[C@H](O)[C@H](O)CCCCCCCCCCCCCC` [αGalCer, α-galactosylceramide] the “liver ALT enzyme level in serum” value [1] was “significant increase in the ALT levels”, the “production of tumor necrosis factor (TNF) α and IL-17 in NKT cells” value (human NKT cells) was “led to the production of tumor necrosis factor (TNF) α and IL-17” and the “CD4+NKT cells positive for IFN-γ and IL-4” value (human NKT cells; αCD28 co-stimulant) was “considerable amounts of CD4+NKT cells positive for IFN-γ and IL-4”. For the same compound, the “percentage of L. major infected macrophages” value (Leishmania major; spleen-derived lymphocytes co-incubated, FIG. 5B) was “significantly reduced”, the “parasite load per macrophage” value (Leishmania major; with addition of spleen cells, FIG. 5D) was “a significant reduction” and the “percentage of L. major infected macrophages” value (Leishmania major; without spleen cells, FIG. 5A) was “significantly reduced”. The “parasite load per macrophage” value (Leishmania major; without spleen cells, FIG. 5C) was “significantly reduced the amount of parasites within the macrophages” and the “expression of iNOS” value (Leishmania major; preliminary results, data not shown) was “increase in the expression of iNOS”.
